Three molecules from patent publication US7323466B2, “Morpholine derivatives as 5HT2C receptor agonists for the treatment of obesity” (Hoffman-La Roche Inc., priority 2005, dated 2008) can be followed below.

Like-named read-outs stand apart in the source and are kept apart here. A value given as a limit tells only on which side of the number the result lay.

The target of one assay is T1, human 5-HT2B receptors (Homo sapiens, UniProt P41595).
T1 construct: expressed in transfected cells; host or cells: CHO cell line
T1 sequence (P41595 whole entry): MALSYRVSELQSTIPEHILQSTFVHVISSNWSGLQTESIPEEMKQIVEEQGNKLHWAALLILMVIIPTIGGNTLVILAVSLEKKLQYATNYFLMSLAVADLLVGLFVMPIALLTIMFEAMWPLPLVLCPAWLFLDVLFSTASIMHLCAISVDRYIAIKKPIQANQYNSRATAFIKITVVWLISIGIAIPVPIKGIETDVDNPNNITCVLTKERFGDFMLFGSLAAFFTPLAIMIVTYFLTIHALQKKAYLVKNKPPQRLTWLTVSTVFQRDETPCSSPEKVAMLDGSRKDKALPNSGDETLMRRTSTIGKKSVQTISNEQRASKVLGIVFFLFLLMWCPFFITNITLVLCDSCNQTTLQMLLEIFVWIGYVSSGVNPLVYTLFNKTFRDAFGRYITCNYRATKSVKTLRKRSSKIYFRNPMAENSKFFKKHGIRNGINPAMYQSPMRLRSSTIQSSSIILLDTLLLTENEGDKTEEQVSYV
Nature of the assay: Binding to the 5-HT2B receptor, [3H]-5-HT, CHO cell line (Method (b)). The procedure: (§1) The binding of compounds of formula (I) to serotonin receptors was determined in vitro by standard methods. The preparations were investigated in accordance with the assays given hereinafter.
Method (b): For the binding to the 5-HT2B receptor the 5-HT2B receptors were radiolabeled with [^3H]-5-HT. The affinity of the compounds for human 5-HT2B receptors in a CHO cell line was determined according to the procedure of K. Schmuck, C. Ullmer, P. Engels and H. Lubbert, FEBS Lett., 1994, 342, 85-90.

Assay [1] concerns the target T2, 5-HT2C receptor (Homo sapiens, UniProt P28335).
T2 sequence (P28335 33-458): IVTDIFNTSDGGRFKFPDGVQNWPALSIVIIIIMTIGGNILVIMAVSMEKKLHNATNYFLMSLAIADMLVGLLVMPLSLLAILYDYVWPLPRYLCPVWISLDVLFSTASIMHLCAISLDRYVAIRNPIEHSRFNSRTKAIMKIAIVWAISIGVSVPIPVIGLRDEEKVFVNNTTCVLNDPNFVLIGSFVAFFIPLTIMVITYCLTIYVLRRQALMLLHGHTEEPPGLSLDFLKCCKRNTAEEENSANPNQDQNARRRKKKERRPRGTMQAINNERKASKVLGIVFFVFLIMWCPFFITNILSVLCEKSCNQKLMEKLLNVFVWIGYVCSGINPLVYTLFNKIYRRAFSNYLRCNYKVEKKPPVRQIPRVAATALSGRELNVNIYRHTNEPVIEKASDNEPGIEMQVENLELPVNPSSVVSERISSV
Nature of the assay: Functional activity, FLIPR calcium assay, CHO cells expressing human 5-HT2C. The class given is cell-based. The settings on record: for h5-HT2C Rel. Eff.: maximum fluorescent signal relative to 10 μM 5-HT (defined as 100%). Further details: expressed in transfected cells; host or cells: CHO cells. The procedure: (§2) The functional activity of compounds of formula (I) was assayed using a Fluorimetric Imaging Plate Reader (FLIPR). CHO cells expressing the human 5-HT2C or human 5-HT2A receptors were counted and plated into standard 96 well microtitre plates on the day before testing to give a confluent monolayer. The cells were then loaded with the calcium sensitive dye, Fluo-3-AM. Unincorporated dye was removed using an automated cell washer to leave a total volume of 100 μL/well of assay buffer (Hanks balanced salt solution containing 20 mM Hepes and 2.5 mM probenecid). The drug (dissolved in 50 μL of the assay buffer) was added at a rate of 70 μL/sec to each well of the FLIPR 96 well plate during fluorescence measurements. The measurements were taken at 1 sec intervals and the maximum fluorescent signal was measured (approx 10-15 secs after drug addition) and compared with the response produced by 10 μM 5-HT (defined as 100%) to which it was expressed as a percentage response (relative efficacy). Dose response curves were constructed using Graphpad Prism (Graph Software Inc.).

Assay [2] deals with T3, 5-HT2A receptor (Homo sapiens, UniProt P28223). The assay is described as follows: Functional activity, FLIPR calcium assay, CHO cells expressing human 5-HT2A. It is filed as cell-based. Further details: expressed in transfected cells; host or cells: CHO cells. The settings on record: for EC50: FLIPR, CHO cells, Fluo-3-AM, read-out: h5-HT2A EC50; for h5-HT2A Rel. Eff.: maximum fluorescent signal relative to 10 μM 5-HT (defined as 100%). The procedure: as §2
T3 sequence (P28223 whole entry): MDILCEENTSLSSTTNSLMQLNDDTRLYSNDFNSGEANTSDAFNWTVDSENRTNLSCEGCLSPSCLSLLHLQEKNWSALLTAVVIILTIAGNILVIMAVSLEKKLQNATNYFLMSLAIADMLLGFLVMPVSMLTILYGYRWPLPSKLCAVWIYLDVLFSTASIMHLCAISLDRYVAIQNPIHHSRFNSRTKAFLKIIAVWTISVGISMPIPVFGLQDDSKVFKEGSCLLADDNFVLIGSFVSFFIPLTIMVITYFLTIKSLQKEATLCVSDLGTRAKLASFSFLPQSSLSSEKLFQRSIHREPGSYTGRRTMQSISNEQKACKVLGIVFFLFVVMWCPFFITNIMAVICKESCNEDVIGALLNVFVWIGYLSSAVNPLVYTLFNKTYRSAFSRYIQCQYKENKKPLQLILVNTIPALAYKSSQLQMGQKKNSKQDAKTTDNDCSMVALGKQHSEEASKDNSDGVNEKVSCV

Assay [3] concerns the target T2, 5-HT2C receptor. The assay is described as follows: Binding to the 5-HT2C receptor, [3H]-5-HT, CHO cell line (Method (a)). Also noted: expressed in transfected cells; host or cells: CHO cell line. The procedure: as §1
Method (a): For the binding to the 5-HT2C receptor the 5-HT2C receptors were radiolabeled with [^3H]-5-HT. The affinity of the compounds for 5-HT2C receptors in a CHO cell line was determined according to the procedure of D. Hoyer, G. Engel and H. O. Kalkman, European J. Pharmacol., 1985, 118, 13-23.

For assay [4], the target named is T3, 5-HT2A receptor. The assay is described as follows: Binding to the 5-HT2A receptor, [125I]-DOI, CHO cell line (Method (c)). Further details: expressed in transfected cells; host or cells: CHO cell line. As for the experimental part: as §1
Method (c): For the binding to the 5-HT2A receptor the 5-HT2A receptors were radiolabeled with [^125I]-DOI. The affinity of the compounds for 5-HT2A receptors in a CHO cell line was determined according to the procedure of D. J. McKenna and S. J. Peroutka, J. Neurosci., 1989, 9, 3482-90.

The mark [5] stands for this setting: Method (b), [3H]-5-HT, human 5-HT2B, CHO cell line, read-out: Ki (2B).
[6] abbreviates: FLIPR, CHO cells, Fluo-3-AM, read-out: h5-HT2C EC50.
Setting [7] is: Method (a), [3H]-5-HT, CHO cell line, read-out: Ki (2C).
The mark [8] stands for this setting: Method (c), [125I]-DOI, CHO cell line, read-out: Ki (2A).

One may read the Ki as the dissociation constant of the complex between target and ligand, obtained from inhibition or displacement. The EC50 is the midpoint of the concentration-response curve. Regarding `FC(F)(F)c1cccc(C[C@@H]2CNCCO2)c1` [Example 14, (R)-2-(3-trifluoromethyl)benzylmorpholine], the Ki came out at 55 nM at human 5-HT2B receptors (setting [5]), 10 nM on 5-HT2C receptor [3] (setting [7]) and 89 nM on 5-HT2A receptor [4] (setting [8]). Further, the half-maximal effective concentration (EC50) on 5-HT2C receptor [1] (setting [6]) was 7 nM; at 5-HT2A receptor [2], 511 nM. Moreover, the “h5-HT2C Rel. Eff.” value at 5-HT2C receptor [1] came to 97%. Further, the “h5-HT2A Rel. Eff.” value at 5-HT2A receptor [2] was 47%.
For the molecule `COc1c(C)cc(C[C@@H]2CNCCO2)cc1Br` [Example 46, (R)-2-(3-bromo-4-methoxy-5-methyl-benzyl)morpholine], the Ki at human 5-HT2B receptors (setting [5]) was more than 10000 nM; on 5-HT2C receptor [3] (setting [7]), 82 nM; at 5-HT2A receptor [4] (setting [8]), 641 nM. Besides, the EC50 is 53 nM at 5-HT2C receptor [1] (setting [6]) and more than 3000 nM at 5-HT2A receptor [2]. Moreover, the “h5-HT2C Rel. Eff.” value at 5-HT2C receptor [1] came out at 94%. Also, on 5-HT2A receptor [2], the “h5-HT2A Rel. Eff.” value is listed as 21%.
Turning to `c1ccc(C[C@@H]2CNCCO2)cc1` [reference compound], the Ki was more than 10000 nM at human 5-HT2B receptors, 169 nM at 5-HT2C receptor [3] and more than 10000 nM on 5-HT2A receptor [4]. Moreover, the EC50 on 5-HT2C receptor [1] and on 5-HT2A receptor [2] was more than 3000 nM each time. In addition, the “h5-HT2C Rel. Eff.” value on 5-HT2C receptor [1] turned out to be 41%. Further, at 5-HT2A receptor [2], the “h5-HT2A Rel. Eff.” value was 2%.
